Data reported in patent US5389687A, “Ring-substituted 2-amino-1,2,3,4-tetra-hydronaphthalenes” (Eli Lilly and Company, priority 1991, dated 1995).
Values joined by “and” are separate entries in the source; they are usually repeats but may differ in a detail not shown here. Identical values can stand only once. Like-named read-outs stand apart in the source and are kept apart here.

Assays:
[1] = tested on: conscious spontaneous hypertensive rats (SHR); assay: Effect on blood pressure after i.v. administration to conscious SHR; assay type: in vivo; details: conscious SHR; for ED25: Rattus norvegicus, iv, i.v., read-out: Blood Pressure ED25 (i.v. dose required to decrease pressure 25%)
Method: (§1) The compounds of this invention are also effective in reducing blood pressure. The blood pressure lowering effect of the compounds of this invention was determined in conscious spontaneous hypertensive rats (SHR; 325-425 g). The rats were anesthetized with halothane (2% in nitrous oxide and oxygen) and were implanted with femoral arterial and venous catheters. The tips of arterial and venous catheters-were positioned in the abdominal aorta below the renal arteries and lower abdominal vena cava, respectively. The catheters were routed subcutaneously to an exit point at the base of the skull and then through a small leather harness fastened around the forequarters of each animal. The animals were allowed a 3- to 4-day recovery period after surgery. On the day before an experiment, each rat was conditioned to the experimental surroundings for 6 hours. On the day of the experiment, the harness on the back of each animal was connected to a spring tether through which arterial and venous extension tubing was routed. The other end of the tubing was connected to a water tight swivel. This system permitted direct recording of blood pressure in conscious free moving animals. Mean arterial blood pressure was measured via a Statham strain gauge transducer (P23DB, Statham Instruments, Oxnard, Calif.) and recorded on a multichannel oscillograph (Beckman Model R611, Beckman Instruments, Palo Alto, Calif.). A minimum 30-minute equilibration period was observed prior to the experimental protocol during which time the animals preened and blood pressure was quite labile. Afterward, the animals appeared to sleep and pressure was stable. Following a control blood pressure measurement, rats were dosed with the compound or vehicle i.v., and pressure was monitored at various time intervals thereafter.
(§2) ^1 Standard protocol recorded the blood pressure and heart rate
(§3) responses after 0.3, 1.0 and 3.0 mg/kg i.v. Dose response curves were
(§4) plotted using the % change in pressure from pretreatment control values a
(§5) 15 and 30 minutes after treatment.
(§6) Corr = correlation coefficient for the linear relationship between the lo
(§7) dose(s) and % change (y) in pressure. Values of 1.0 = perfect correlation
(§8) Pos = Positive slope of dose response
ED25 = i.v. dose required to decrease pressure 25%

[2] = tested on: conscious spontaneous hypertensive rats (SHR); assay: Effect on heart rate after i.v. administration to conscious SHR; assay type: in vivo; details: i.v., conscious SHR; for ED15: Rattus norvegicus, iv, read-out: Heart Rate ED15
Method: as §1, §2, §3, §4, §5, §6, §7, §8
HR Index = ED15 for Heart Rate divided by ED25 for Blood

[3] = molecular target: T1, 5HT1a receptors (Rattus norvegicus, UniProt P19327); assay: Binding at 5HT1a receptors in vitro (inhibition of 3H-8-OH-DPAT binding to synaptosomal membranes from cerebral cortex); set-up: species or system Male Sprague-Dawley rats; details: 0.4 nM 3H-8-OH-DPAT, 37° C., 10 min, pH 7.4, several values in a cell are separate determinations
T1 construct: synaptosomal membranes isolated from cerebral cortex; from tissue; host or cells: rat cerebral cortex, crude synaptosomal membranes (Male Sprague-Dawley rats from Harlan Industries)
T1 sequence (P19327 1-422): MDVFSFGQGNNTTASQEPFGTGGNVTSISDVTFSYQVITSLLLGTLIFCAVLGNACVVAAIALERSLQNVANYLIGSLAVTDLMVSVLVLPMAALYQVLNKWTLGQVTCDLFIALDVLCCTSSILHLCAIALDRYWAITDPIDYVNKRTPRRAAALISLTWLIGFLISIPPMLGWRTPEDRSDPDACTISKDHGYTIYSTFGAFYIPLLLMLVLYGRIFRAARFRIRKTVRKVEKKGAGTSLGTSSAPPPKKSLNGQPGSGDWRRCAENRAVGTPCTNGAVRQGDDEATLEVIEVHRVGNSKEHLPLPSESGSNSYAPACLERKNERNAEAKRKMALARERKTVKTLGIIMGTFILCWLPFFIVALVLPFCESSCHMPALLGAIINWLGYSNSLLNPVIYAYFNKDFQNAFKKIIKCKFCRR
Method: This general procedure is set forth in Wong et al., J. Neural Transm. 71:207-218 (1988).
Male Sprague-Dawley rats (110-150 g) from Harlan Industries (Cumberland, Ind.) were fed a Purina Chow ad libitum for at least 3 days before being used in the studies. Rats were killed by decapitation. The brains were rapidly removed, and the cerebral cortices were dissected out at 4° C.
Brain tissues were homogenized in 0.32 M sucrose. After centrifugation at 1000×g for 10 min and then at 17000×g for 20 min, a crude synaptosomal fraction was sedimented. The pellet was suspended in 100 vol of 50 mM Tris-HCl, pH 7.4, incubated at 37° C. for 10 min, and centrifuged at 50000×g for 10 min. The process was repeated and the final pellet was suspended in ice-chilled 50 mM Tris-HCl, pH 7.4. By the radio-ligand binding method, sites specifically labeled by tritiated 8-hydroxy-2-dipropylamino-1,2,3,4-tetrahydronaphthalene ([…]) have been identified as 5HT-1a receptors.
Binding of (^3 H-8-OH-DPAT) was performed according to the previously described method [Wong et al., J. Neural Transm. 64:251-269 (1985)]. Briefly, synaptosomal membranes isolated from cerebral cortex were incubated at 37° C. for 10 min. in 2 ml of 50 mM Tris-HCl, pH 7.4; 10 μM pargyline; 0.6 mM ascorbic acid; and 0.4 nM […]. Binding was terminated by filtering samples under reduced pressure through glass fiber (GFB) filters. The filters were washed twice with 5 ml of ice cold buffer and placed in scintillation vials with 10 ml of PCS (Amersham/Searle) scintillation fluid. Radioactivity was measured with a liquid scintillation spectrometer. Unlabeled 8-OH-DPAT at 10 μM was also included in separate samples to establish non-specific binding. Specific binding of ^3 H-8-OH-DPAT is defined as the difference of radioactivity bound in the absence and in the presence of 10 μM unlabeled 8-OH-DPAT.

[4] = 0.25 h, 15 min. after treatment

Row | SMILES | ED25 [1, 4] [mg/kg] | ED25 ([1]; 0.5 h, 30 min. after treatment) [mg/kg] | Heart Rate ED15 ([2]; 15 min. after treatment) | Heart Rate ED15 ([2]; 30 min. after treatment) | HR Index (ED15 for Heart Rate divided by ED25 for Blood Pressure) ([2]; 30 min. after treatment) | ED15 ([2]; 0.5 h, 30 min. after treatment) [mg/kg] | IC50 ([3]; read-out: IC50 5HT1a) | HR Index (ED15 for Heart Rate divided by ED25 for Blood Pressure) ([2]; 15 min. after treatment) | ED15 [2, 4] [mg/kg] | IC50 ([3]; IC50 5HT1a) | convulsion ([1]; 3.0 mg/kg i.v.)
1 | CN(C)C1CCc2cccc(C(N)=O)c2C1 (stereo not shown) [Example 19, 2-Dimethylamino-8-carboxamido-1,2,3,4-tetrahydronaphthalene] | 10.9 | 1030 | Pos | Pos |  |  |  |  |  |  | 
2 | CNC1CCc2cccc(Cl)c2C1 (stereo not shown) [Example 12, 2-Methylamino-8-chloro-1,2,3,4-tetrahydronaphthalene] | 1.4 | 1.8 |  |  | 0.83 | 1.5 |  |  |  |  | 
3 | CN(C)C1CCc2cccc(Cl)c2C1 (stereo not shown) [Example 11, 2-Dimethylamino-8-chloro-1,2,3,4-tetrahydronaphthalene] | 1.1 | 1.8 |  |  | 3.00 | 5.4 | 580 nM and 272 nM | 1.0 | 1.1 |  | 
4 | CCCCN(CCCC)C1CCc2cccc(Cl)c2C1 (stereo not shown) [Example 4, 2-Di-n-butylamino-8-chloro-1,2,3,4-tetrahydronaphthalene] |  |  |  |  |  |  | 780 nM and 318 nM |  |  |  | 
5 | CCCNC1CCc2cccc(NC(C)=O)c2C1 (stereo not shown) [Example 18, 2-Propylamino-8-acetamido-1,2,3,4-tetrahydronaphthalene] |  |  |  |  |  | 1.2 |  |  | 3.8 |  | 
6 | CCCN(CCC)C1CCc2cccc(Br)c2C1 (stereo not shown) [Example 5, 2-Di-n-propylamino-8-bromo-1,2,3,4-tetrahydronaphthalene] | 6.1 | 5.9 |  |  | 0.27 | 1.6 |  | 0.06 | 1.6 | 23 nM and 15.1 nM | 
7 | CCCN(CCC)C1CCc2cccc(CO)c2C1 (stereo not shown) [Example 21, 2-Di-n-propylamino-8-hydroxymethyl-1,2,3,4-tetrahydronaphthalene] | 4.2 |  |  |  |  |  |  |  |  | 55.5 nM | caused convulsion
8 | CCCNC1CCc2cccc(Cl)c2C1 (stereo not shown) [Example 10, 2-n-Propylamino-8-chloro-1,2,3,4-tetrahydronaphthalene] | 2.5 | 4.5 |  |  | 0.47 | 2.1 | 200 nM | 0.48 | 1.2 |  | 
9 | CCCN(CCC)C1CCc2cccc(C=O)c2C1 (stereo not shown) [Example 17, 2-Di-n-propylamino-8-formyl-1,2,3,4-tetrahydronaphthalene] |  |  |  |  |  |  |  |  |  | 17.2 nM | 
10 | CCCN(CCC)C1CCc2cccc(Cl)c2C1 (stereo not shown) [Example 1, 2-Di-n-propylamino-8-chloro-1,2,3,4-tetrahydronaphthalene] | 3.1 | 13 |  |  | 0.22 | 2.8 |  | 8.96 | 27.8 | 18 nM | 
